# Measured values from patent publication US8710021B2, “Inhibition of HRP-3 using modified oligonucleotides” (Bionucleon S.r.l., priority 2008, dated 2014).
# Legend:
# HRP-3 [1] = molecular target: T1, HRP-3 (Homo sapiens, UniProt Q9Y3E1); experiment: 3T3 migration in vitro assay: prevention of HRP-3 function by DNA duplexes; assay type: cell-based, mouse
# T1 construct: The HRP-3 coding region was cloned into the pET30 vector using EcoRI and NdeI as restriction sites; made in house; host or cells: E. coli BL21
# T1 sequence (Q9Y3E1 whole entry): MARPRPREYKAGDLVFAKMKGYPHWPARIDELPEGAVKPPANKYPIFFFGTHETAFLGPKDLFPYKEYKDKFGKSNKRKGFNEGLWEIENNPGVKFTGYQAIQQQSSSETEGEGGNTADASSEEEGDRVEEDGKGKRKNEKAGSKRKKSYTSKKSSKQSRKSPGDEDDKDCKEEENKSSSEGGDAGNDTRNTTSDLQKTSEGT
# Method: All the four DNA duplexes were tested in our 3T3 migration in vitro assay to see if they were able to prevent HRP-3 function by binding its PWWP domain (FIG. 13). […] The third column on the left is the negative control.
# HRP-3 [2] = molecular target: T1, HRP-3; experiment: HUVEC migration assay with Duplex 1 and HRP-3; assay type: cell-based; details: 50 nM; data not shown
substance,measurement,setting,value
"Duplex 1: short (15 bp) duplex DNA, the duplex of Lukasik et al., designed to target HRP3 (FIG. 12) (chain 1 TACAACACCCACAAA; chain 2 TTTGTGGGTGTTGTA; chain 1: DNA, backbone and methylation of C not given here; chain 2: DNA, backbone not given here) [reference compound]",activity in abolishing the anti-migratory effect of HRP-3 on 3T3 cells,HRP-3 [1],able to abolish the protein effect of HRP-3
same,migration of 3T3 cells in presence of HRP-3 and duplex,HRP-3 [1]; 250 nM duplex with HRP-3,comparable with the control with FBS
same,influence of the duplex alone on 3T3 migration compared to control with FBS,"HRP-3 [1]; 1000 nM, without HRP-3",does not have any influence on the migration
same,reversal of anti-migratory activity of HRP-3 on HUVEC,HRP-3 [2],restore totally
